From patent US20250059187A1, “COVALENTLY BINDING INHIBITORS OF G12S, G12D AND/OR G12E MUTANTS OF K-RAS GTPASE” (The Regents of the University of California, priority 2021, published 2025)

How the values were obtained:
Assay type in all cases: binding
[1] = molecular target: T1, K-Ras G12E (Homo sapiens, UniProt P01116, G12E); assay: Covalent modification of test protein after incubation with compound; details: 24-h incubation with 100 μM compound at 23° C. at pH 7.5
T1 construct: human K-Ras (G12E, aa 1-169); 6xHis tag + TEV cleavage site (N, cleaved yes); made in house; host or cells: E. coli BL21(DE3)

[2] = molecular target: T2, wild type K-Ras (Homo sapiens, UniProt P01116); assay: as above; details: 24-h incubation with 100 μM compound at 23° C. at pH 7.5
T2 construct: human K-Ras (wildtype, aa 1-169); 6xHis tag + TEV cleavage site (N, cleaved yes); made in house; host or cells: E. coli BL21(DE3)

[3] = molecular target: T2, wild type K-Ras; assay: Covalent modification of recombinant wild-type K-Ras by whole-protein mass spectrometry; details: 23° C.; for % covalent modification of wild type K-Ras: 24-h incubation, 100 μM compound, pH 7.5
Procedure: (§1) Test compounds were prepared as 100× stock solutions in DMSO. K-Ras proteins were diluted with SEC Buffer (20 mM HEPES 7.5, 150 mM NaCl, 1 mM MgCl2) to 400 nM or 1 μM. In a typical reaction, 0.5 μL 100× compound stock was mixed with 50 μL diluted K-Ras protein, and the resulting mixture was incubated for the desired amount of time. The extent of modification was assessed by electrospray mass spectrometry using a Waters Xevo G2-XS system equipped with an Acquity UPLC BEH C4 1.7 μm column. The mobile phase was a linear gradient of 5-95% acetonitrile/water+0.05% formic acid. For kinetic measurements, a 2× compound solution was first prepared in SEC Buffer, which was then mixed with 400 nM K-Ras(G12S) protein at 1:1 (v/v) ratio. Injection time stamps were used to calculate elapsed time.
as §1, with “K-Ras(G12D)” for “K-Ras(G12S)”

[4] = molecular target: K-Ras(G12S) (Homo sapiens, UniProt P01116, G12S); assay: Covalent modification of recombinant K-Ras(G12S) by whole-protein mass spectrometry; parameters: human K-Ras (G12S, aa 1-169); 6xHis tag + TEV cleavage site (N, cleaved yes); made in house; host or cells: E. coli BL21(DE3); details: 23° C.; for % covalent modification of K-Ras G12S: 24-h incubation, 100 μM compound, pH 7.5
Procedure: as §1, with “The mobile phase was a linear gradient of 5-95% acetonitrile/water+0.05% formic acid.” left out
as §1, with “The mobile phase was a linear gradient of 5-95% acetonitrile/water+0.05% formic acid.” left out, “K-Ras(G12D)” for “K-Ras(G12S)”

[5] = molecular target: T3, K-Ras G12D (Homo sapiens, UniProt P01116, G12D); assay: Covalent modification of test protein after incubation with compound; details: 24-h incubation with 100 μM compound at 23° C. at pH 7.5
T3 construct: human K-Ras (G12D, aa 1-169); 6xHis tag + TEV cleavage site (N, cleaved yes); made in house; host or cells: E. coli BL21(DE3)

Row | SMILES | % covalent modification of K-Ras G12E [1] | % covalent modification of wild type K-Ras [2] | % covalent modification of wild type K-Ras [3] | covalent reaction with K-Ras(G12S)·GDP ([4]; 10 μM compound) | % covalent modification of K-Ras G12S [4] | % covalent modification of K-Ras G12D [5] | covalent adducts with wild-type K-Ras protein ([3]; 10 μM compound, 4 μM protein)
1 | CN1CCC[C@H]1COc1nc2c(c(N3CCC4OC(=O)C4C3)n1)CCN(c1cccc3cccc(Cl)c13)C2 (stereo partly shown) [2′] | 7.0% | 0% | 0% | did not yield any covalent adduct | 23.0% | 6.0% | neither of these compounds formed covalent adducts
2 | C[C@@H]1C(=O)O[C@H]1C(=O)N1[C@@H]2CC[C@H]1CN(c1nc(OCC34CCCN3CCC4)nc3c(F)c(-c4cccc5cccc(Cl)c45)ncc13)C2 [(2R, 3S)-3] |  | 0% |  |  |  | 100% | 
3 | CC(C)[C@@H]1C(=O)O[C@H]1C(=O)N1[C@@H]2CC[C@H]1CN(c1nc(OCC34CCCN3CCC4)nc3c(F)c(-c4cccc5cccc(Cl)c45)ncc13)C2 [(2R, 3S)-4] |  | 0% |  |  |  | 100% | 
4 | C#Cc1cccc2cccc(-c3ncc4c(N5C[C@H]6CC[C@@H](C5)N6C(=O)[C@@H]5OC(=O)[C@H]5C(C)C)nc(OCC56CCCN5CCC6)nc4c3F)c12 [(2R, 3S)-5] | 0% | 0% |  |  |  | 100% | 
5 | C#Cc1c(F)ccc2cc(O)cc(-c3ncc4c(N5C[C@H]6CC[C@@H](C5)N6C(=O)[C@@H]5OC(=O)[C@H]5C(C)C)nc(OC[C@@]56CCCN5C[C@H](F)C6)nc4c3F)c12 [(2R, 3S)-6] | 0% | 0% |  |  |  | 100% | 
6 | O=C1C[C@H](C(=O)N2[C@@H]3CC[C@H]2CN(c2nc(OCC45CCCN4CCC5)nc4c(F)c(-c5cccc6cccc(Cl)c56)ncc24)C3)O1 [(R)-2] |  | 0% |  |  |  | 100% | 
7 | Cc1ccc2[nH]ncc2c1-c1cc2ncnc(N3CC(C(=O)N[C@H]4COC4=O)C3)c2cc1Cl [Compound 03-099] | 16.8% | 18.6% |  |  |  | 23.4% | 
8 | Cc1ccc2[nH]ncc2c1-c1cc2ncnc(N3CC(C(=O)N[C@@H]4COC4=O)C3)c2cc1Cl [Compound 03-100] | 18.5% | 22.6% |  |  |  | 17.7% | 
9 | O=C1O[C@@H]2CCN(c3ncnc4c(F)c(-c5ccccc5F)c(Cl)cc34)C[C@H]12 [Compound 04-005] | 0% | 0% | 0% |  | 0% | 0% | 
10 | Cc1ccc2[nH]ncc2c1-c1cc2ncnc(N3CCC(C(=O)N[C@H]4COC4=O)CC3)c2cc1Cl [Compound 04-022] | 2.1% | 4.6% |  |  |  | 4.1% | 
11 | Cc1ccc2[nH]ncc2c1-c1cc2ncnc(N3CCC(C(=O)N[C@@H]4COC4=O)CC3)c2cc1Cl [Compound 04-023] | 2.1% | 1.5% |  |  |  | 2.7% | 

Further lines, with some results ahead:

Row | % covalent modification of K-Ras G12E [1] | % covalent modification of wild type K-Ras [2] | % covalent modification of wild type K-Ras [3] | covalent reaction with K-Ras(G12S)·GDP ([4]; 10 μM compound) | % covalent modification of K-Ras G12S [4] | % covalent modification of K-Ras G12D [5] | SMILES | covalent adducts with wild-type K-Ras protein ([3]; 10 μM compound, 4 μM protein)
12 | 7.4% | 8.0% | 8.0% |  | 0% | 2.4% | CC1(c2cc(NCC(=O)N3CC[C@H]4OC(=O)[C@H]4C3)c(O)cc2Cl)CC1 [Compound 06-092] | 
13 | 5.3% | 4.8% | 4.8% |  | 0% | 2.4% | CC1(c2cc(NCC(=O)N3CC[C@H]4C(=O)O[C@H]4C3)c(O)cc2Cl)CC1 [Compound 06-093] | 
14 |  | 0% |  |  |  | 0% | CC1(c2cc(NCC(=O)N[C@H]3COC3=O)c(O)cc2Cl)CC1 [Compound 06-094] | 
15 |  | 0% |  |  |  | 0% | CC1(c2cc(NCC(=O)N[C@@H]3COC3=O)c(O)cc2Cl)CC1 [Compound 06-095] | 
16 | 0% | 0% | 0% |  |  | 0% | CC1(c2cc(NCC(=O)N3CC[C@H]4OC(=O)[C@@]4(C)C3)c(O)cc2Cl)CC1 [Compound 08-043] | 
17 | 0% | 0% | 0% |  |  | 0% | CC1(c2cc(NCC(=O)N3CC[C@@]4(C)C(=O)O[C@H]4C3)c(O)cc2Cl)CC1 [Compound 08-044] | 
18 | 0% | 0% | 0% |  | 19.0% | 0% | CN1CCC[C@@H]1COc1nc2c(c(N3CC[C@@]4(C)C(=O)O[C@H]4C3)n1)CCN(c1cccc3cccc(Cl)c13)C2 [Compound 12-028] | 
19 | 0% | 0% | 0% |  | 0% | 0% | CN1CCC[C@@H]1COc1nc2c(c(N3CC[C@H]4OC(=O)[C@@]4(C)C3)n1)CCN(c1cccc3cccc(Cl)c13)C2 [Compound 12-044] | 
20 | 7.0% | 6.0% | 6.0% |  | 94.0% | 5.0% | CN1CCC[C@@H]1COc1nc2c(c(N3C[C@@H]4OC(=O)[C@@H]4C3)n1)CCN(c1cccc3cccc(Cl)c13)C2 [Compound 12-058] | 
21 | 0% | 0% | 0% |  | 0% | 0% | CN1CCC[C@@H]1COc1nc2c(c(N3CCC4(CC3)CNC4=O)n1)CCN(c1cccc3cccc(Cl)c13)C2 [Compound 12-064] | 
22 | 0% | 0% | 0% |  | 0% | 0% | CN1CCC[C@@H]1COc1nc2c(c(N3CCN4C(=O)C[C@H]4C3)n1)CCN(c1cccc3cccc(Cl)c13)C2 [Compound 12-074] | 
23 | 8.6% | 7.5% | 7.5% |  | 100% | 6.9% | CN1CCC[C@@H]1COc1nc2c(c(N3CC[C@H]4C(=O)O[C@H]4C3)n1)CCN(c1cccc3cccc(Cl)c13)C2 [Compound 12-077] | 
